Measurements reported in US7780997B2, “Pharmaceutically active extracts of vitex leucoxylon, a process of extracting the same and a method of treating diabetes and inflammatory diseases therewith” (Laila Impex, priority 2005, dated 2010).

Experiments:
[1] = test system: Albino wistar rats; test: Hypoglycemic activity: inhibition of sucrose-induced raise in serum glucose levels (SGL); assay type: in vivo, rat; conditions: for Increased SGL (mean ± SE): 20 mL/kg of 20% sucrose after 30 min, blood one hour after treatment, rats; for % of inhibition (increase in serum glucose levels vs control): sucrose-loaded rats
Method: Hypoglycemic activity: Hypoglycemic activity was tested by the inhibition of sucrose-induced raise in serum glucose levels (SGL), by the V. leucoxylon extracts in Albino wistar rats. The procedure involves fasting the rats for overnight at ad libitum water, numbered weighed and randomly divided into groups of three animals each. Prior to treatment blood samples were drawn from sinus orbital plexus of all animals using heparin coated glass capillaries under mild ether anesthesia. The blood samples were tested for serum glucose levels using enzymatic GOD/POD method. Optical densities were measured at 500 nm, SGL was calculated as follows. SGL=(test OD/Standard OD)×100 and the results were expressed in mg/dL. All the groups were treated orally with corresponding test substances, standard, vehicle (5% gum acacia). After 30 minutes, all animals were given 20 mL/kg of 20% sucrose solution orally using gastric tube. One hour after treatment, blood samples were drawn again under mild ether anesthesia and tested for serum glucose levels in a similar procedure as described above for initial serum glucose estimation. The data was subjected to statistical treatment using t-test and inhibitory rate was calculated by comparing mean increase in serum glucose levels of control and red groups.

[2] = test system: Albino wistar rats; test: Anti-inflammatory activity (Carrageenin induced paw edema method); assay type: in vivo; conditions: Rattus norvegicus, oral dose 25 mg/Kg, 3 h after carrageenin
Method: Anti-inflammatory activity (Carrageenin induced paw edema method): Prior to the experiment all the animals (Albino wistar rats of either sex weighing between 180-300 g) fasted at ad libitum water and were weighed, numbered and randomly divided into groups, each containing 3 animals. Initial paw volumes were measured using plethesmometer and noted. All the groups were treated with corresponding test substance orally using gastric tube. Control group was treated with 10 mL/Kg vehicle (0.5%, carboxymethyl cellulose sodium salt). After 30 minutes, all the animals were injected subcutaneously at subplantar region of left hind paw 1% carrageenin 0.1 mL using hypodermic needle. All the animals were administered water 20 mL/Kg body weight and kept devoid of water for 3 h (maintained uniform hydration). After 3 h, paw volumes of all the animals were measured twice and average volume from two measurements were recorded. The % of inhibition of paw edema was calculated by comparing paw edema of test substance treated groups with that of control groups.

With `C[C@H]1[C@H](C)CC[C@]2(C(=O)O)CC[C@]3(C)C(=CC[C@@H]4[C@@]5(C)C[C@@H](O)[C@H](O)C(C)(C)[C@@H]5CC[C@]43C)[C@H]12` [Corosolic acid] the “Increased SGL (mean ± SE)” value ([1]; oral dose 1 mg/Kg) was 27.72 ± 3.27 mg/dL and the “% of inhibition (increase in serum glucose levels vs control)” value ([1]; oral dose 1 mg/Kg) was 9.78%.
Compound `O=C(O)Cc1ccccc1Nc1c(Cl)cccc1Cl` [Diclofenac sodium] has an inhibition at 25 mg/kg [2] of 63.1%.
For `COc1ccc(Cl)cc1C(=O)NCCc1ccc(S(=O)(=O)NC(=O)NC2CCCCC2)cc1` [Glibenclamide], the “Increased SGL (mean ± SE)” value ([1]; oral dose 25 mg/Kg) was 6.12 ± 4.32 mg/dL and the “% of inhibition (increase in serum glucose levels vs control)” value ([1]; oral dose 25 mg/Kg) was 80.0%.
